Test system: HCT116
Test: In vitro cytotoxicity measured by the cell colony formation assay
Format: cell-based
Details: HCT116 cells, 72 h drug incubation, colonies counted after 7 days; ID50 = drug concentration producing 50% inhibition of colony formation; read-out: IN VITRO ID 50 (nm) HCT116
Method: In Vitro Cytotoxicity Measured by the Cell Colony Formation Assay
Four hundred cells (HCT116) were plated in 60 mm Petri dishes containing 2.7 mL of medium (modified McCoy's 5a medium containing 10% fetal bovine serum and 100 units/mL penicillin and 100 µg/mL streptomycin). The cells were incubated in a CO2 incubator at 37° C. for 5 h for attachment to the bottom of Petri dishes. The compounds identified in Example 2 were made up fresh in medium at ten times the final concentration, and then 0.3 mL of this stock solution was added to the 2.7 mL of medium in the dish. The cells were then incubated with drugs for 72 h at 37° C. At the end of incubation the drug-containing media were decanted, the dishes were rinsed with 4 mL of Hank's Balance Salt Solution (HBSS), 5 mL of fresh medium was added, and the dishes were returned to the incubator for colony formation. The cell colonies were counted using a colony counter after incubation for 7 days.

SMILES: CC(=O)O[C@@]12CO[C@@H]1C[C@H](O)[C@@]1(C)C(=O)[C@H](OC(=O)C3CC3)C3=C(C)[C@@H](OC(=O)[C@H](O)[C@@H](NC(=O)c4ccccc4)C4CC4)C[C@@](O)([C@@H](OC(=O)c4ccccc4)C12)C3(C)C (some centres unmarked) [Compound 0923]
- IC50: < 1 nM

SMILES: CC(=O)O[C@@]12CO[C@@H]1C[C@H](O)[C@@]1(C)C(=O)[C@H](OC(=O)C3CC3)C3=C(C)[C@@H](OC(=O)[C@H](O)[C@@H](NC(=O)c4ccccc4)c4ccccc4)C[C@@](O)([C@@H](OC(=O)c4ccccc4)C12)C3(C)C (some centres unmarked) [Compound 0937]
- IC50: < 10 nM

SMILES: CCCC(=O)O[C@H]1C(=O)[C@@]2(C)C([C@H](OC(=O)c3ccccc3)[C@]3(O)C[C@H](OC(=O)[C@H](O)[C@H](C=C(C)C)NC(=O)OC(C)(C)C)C(C)=C1C3(C)C)[C@]1(OC(C)=O)CO[C@@H]1C[C@@H]2O (some centres unmarked) [Compound 0947]
- IC50: < 1 nM

SMILES: CCCC(=O)O[C@H]1C(=O)[C@@]2(C)C([C@H](OC(=O)c3ccccc3)[C@]3(O)C[C@H](OC(=O)[C@H](O)[C@@H](NC(=O)OC(C)(C)C)c4ccccn4)C(C)=C1C3(C)C)[C@]1(OC(C)=O)CO[C@@H]1C[C@@H]2O (some centres unmarked) [Compound 0951]
- IC50: < 1 nM

SMILES: CCCC(=O)O[C@H]1C(=O)[C@@]2(C)C([C@H](OC(=O)c3ccccc3)[C@]3(O)C[C@H](OC(=O)[C@H](O)[C@@H](NC(=O)OC(C)(C)C)c4cccnc4)C(C)=C1C3(C)C)[C@]1(OC(C)=O)CO[C@@H]1C[C@@H]2O (some centres unmarked) [Compound 0966]
- IC50: < 10 nM

SMILES: CCCC(=O)O[C@H]1C(=O)[C@@]2(C)C([C@H](OC(=O)c3ccccc3)[C@]3(O)C[C@H](OC(=O)[C@H](O)[C@@H](NC(=O)OC(C)(C)C)c4ccncc4)C(C)=C1C3(C)C)[C@]1(OC(C)=O)CO[C@@H]1C[C@@H]2O (some centres unmarked) [Compound 0978]
- IC50: < 1 nM

SMILES: CCCC(=O)O[C@H]1C(=O)[C@@]2(C)C([C@H](OC(=O)c3ccccc3)[C@]3(O)C[C@H](OC(=O)[C@H](O)[C@@H](NC(=O)OC(C)(C)C)c4ccco4)C(C)=C1C3(C)C)[C@]1(OC(C)=O)CO[C@@H]1C[C@@H]2O (some centres unmarked) [Compound 0983]
- IC50: < 1 nM

SMILES: CCCC(=O)O[C@H]1C(=O)[C@@]2(C)C([C@H](OC(=O)c3ccccc3)[C@]3(O)C[C@H](OC(=O)[C@H](O)[C@@H](NC(=O)OC(C)(C)C)c4ccoc4)C(C)=C1C3(C)C)[C@]1(OC(C)=O)CO[C@@H]1C[C@@H]2O (some centres unmarked) [Compound 0999]
- IC50: < 1 nM

SMILES: CCCC(=O)O[C@H]1C(=O)[C@@]2(C)C([C@H](OC(=O)c3ccccc3)[C@]3(O)C[C@H](OC(=O)[C@H](O)[C@@H](NC(=O)OC(C)(C)C)c4cccs4)C(C)=C1C3(C)C)[C@]1(OC(C)=O)CO[C@@H]1C[C@@H]2O (some centres unmarked) [Compound 1003]
- IC50: < 1 nM

SMILES: CCCC(=O)O[C@H]1C(=O)[C@@]2(C)C([C@H](OC(=O)c3ccccc3)[C@]3(O)C[C@H](OC(=O)[C@H](O)[C@@H](NC(=O)OC(C)(C)C)c4ccsc4)C(C)=C1C3(C)C)[C@]1(OC(C)=O)CO[C@@H]1C[C@@H]2O (some centres unmarked) [Compound 1011]
- IC50: < 1 nM

SMILES: CCCC(=O)OC1C(=O)C2(C)C(O)CC3OCC3(OC(C)=O)C2C(OC(=O)c2ccccc2)C2(O)CC(OC(=O)C(O)C(NC(=O)OC(C)(C)C)C3CC3)C(C)=C1C2(C)C (centres unmarked) [Compound 1020]
- IC50: < 1 nM

SMILES: CCCC(=O)OC1C(=O)C2(C)C(O)CC3OCC3(OC(C)=O)C2C(OC(=O)c2ccccc2)C2(O)CC(OC(=O)C(O)C(NC(=O)OC(C)(C)C)C(C)C)C(C)=C1C2(C)C (centres unmarked) [Compound 1031]
- IC50: < 10 nM

SMILES: CCCC(=O)OC1C(=O)C2(C)C(O)CC3OCC3(OC(C)=O)C2C(OC(=O)c2ccccc2)C2(O)CC(OC(=O)C(O)C(NC(=O)OC(C)(C)C)C3CCC3)C(C)=C1C2(C)C (centres unmarked) [Compound 1044]
- IC50: < 1 nM

SMILES: CCCC(=O)OC1C(=O)C2(C)C(O)CC3OCC3(OC(C)=O)C2C(OC(=O)c2ccccc2)C2(O)CC(OC(=O)C(O)C(NC(=O)OC(C)(C)C)c3ccccc3)C(C)=C1C2(C)C (centres unmarked) [Compound 1060]
- IC50: < 1 nM

SMILES: CC(=O)OC12COC1CC(O)C1(C)C(=O)C(OC(=O)c3cccs3)C3=C(C)C(OC(=O)C(O)C(C=C(C)C)NC(=O)OC(C)(C)C)CC(O)(C(OC(=O)c4ccccc4)C21)C3(C)C (centres unmarked) [Compound 1879]
- IC50: < 10 nM

SMILES: CC(=O)OC12COC1CC(O)C1(C)C(=O)C(OC(=O)c3cccs3)C3=C(C)C(OC(=O)C(O)C(NC(=O)OC(C)(C)C)c4ccccn4)CC(O)(C(OC(=O)c4ccccc4)C21)C3(C)C (centres unmarked) [Compound 1883]
- IC50: < 10 nM

SMILES: CC(=O)OC12COC1CC(O)C1(C)C(=O)C(OC(=O)c3cccs3)C3=C(C)C(OC(=O)C(O)C(NC(=O)OC(C)(C)C)c4ccco4)CC(O)(C(OC(=O)c4ccccc4)C21)C3(C)C (centres unmarked) [Compound 1892]
- IC50: < 1 nM

SMILES: CC(=O)OC12COC1CC(O)C1(C)C(=O)C(OC(=O)c3cccs3)C3=C(C)C(OC(=O)C(O)C(NC(=O)OC(C)(C)C)c4cccs4)CC(O)(C(OC(=O)c4ccccc4)C21)C3(C)C (centres unmarked) [Compound 1900]
- IC50: < 1 nM

SMILES: CC(=O)OC12COC1CC(O)C1(C)C(=O)C(OC(=O)c3cccs3)C3=C(C)C(OC(=O)C(O)C(NC(=O)OC(C)(C)C)c4ccc([N+](=O)[O-])cc4)CC(O)(C(OC(=O)c4ccccc4)C21)C3(C)C (centres unmarked) [Compound 1911]
- IC50: < 10 nM

SMILES: CC(=O)OC12COC1CC(O)C1(C)C(=O)C(OC(=O)c3cccs3)C3=C(C)C(OC(=O)C(O)C(NC(=O)OC(C)(C)C)c4ccoc4)CC(O)(C(OC(=O)c4ccccc4)C21)C3(C)C (centres unmarked) [Compound 1923]
- IC50: < 1 nM

SMILES: CC(=O)OC12COC1CC(O)C1(C)C(=O)C(OC(=O)c3cccs3)C3=C(C)C(OC(=O)C(O)C(NC(=O)OC(C)(C)C)c4ccsc4)CC(O)(C(OC(=O)c4ccccc4)C21)C3(C)C (centres unmarked) [Compound 1939]
- IC50: < 1 nM

SMILES: CC(=O)OC12COC1CC(O)C1(C)C(=O)C(OC(=O)c3cccs3)C3=C(C)C(OC(=O)C(O)C(NC(=O)OC(C)(C)C)c4cccnc4)CC(O)(C(OC(=O)c4ccccc4)C21)C3(C)C (centres unmarked) [Compound 1948]
- IC50: < 10 nM

SMILES: CC(=O)OC12COC1CC(O)C1(C)C(=O)C(OC(=O)c3cccs3)C3=C(C)C(OC(=O)C(O)C(NC(=O)OC(C)(C)C)c4ccncc4)CC(O)(C(OC(=O)c4ccccc4)C21)C3(C)C (centres unmarked) [Compound 1954]
- IC50: < 1 nM

SMILES: CC(=O)OC12COC1CC(O)C1(C)C(=O)C(OC(=O)c3cccs3)C3=C(C)C(OC(=O)C(O)C(NC(=O)OC(C)(C)C)C(C)C)CC(O)(C(OC(=O)c4ccccc4)C21)C3(C)C (centres unmarked) [Compound 1964]
- IC50: < 10 nM

SMILES: CC(=O)OC12COC1CC(O)C1(C)C(=O)C(OC(=O)c3cccs3)C3=C(C)C(OC(=O)C(O)C(NC(=O)OC(C)(C)C)C4CCC4)CC(O)(C(OC(=O)c4ccccc4)C21)C3(C)C (centres unmarked) [Compound 1970]
- IC50: < 10 nM

SMILES: CC(=O)OC12COC1CC(O)C1(C)C(=O)C(OC(=O)c3cccs3)C3=C(C)C(OC(=O)C(O)C(NC(=O)OC(C)(C)C)c4ccccc4)CC(O)(C(OC(=O)c4ccccc4)C21)C3(C)C (centres unmarked) [Compound 1988]
- IC50: < 10 nM

SMILES: CC(=O)OC12COC1CC(O)C1(C)C(=O)C(OC(=O)c3ccco3)C3=C(C)C(OC(=O)C(O)C(C=C(C)C)NC(=O)OC(C)(C)C)CC(O)(C(OC(=O)c4ccccc4)C21)C3(C)C (centres unmarked) [Compound 2101]
- IC50: < 1 nM

SMILES: CC(=O)OC12COC1CC(O)C1(C)C(=O)C(OC(=O)c3ccco3)C3=C(C)C(OC(=O)C(O)C(NC(=O)OC(C)(C)C)c4ccccn4)CC(O)(C(OC(=O)c4ccccc4)C21)C3(C)C (centres unmarked) [Compound 2111]
- IC50: < 1 nM

SMILES: CC(=O)OC12COC1CC(O)C1(C)C(=O)C(OC(=O)c3ccco3)C3=C(C)C(OC(=O)C(O)C(NC(=O)OC(C)(C)C)c4cccnc4)CC(O)(C(OC(=O)c4ccccc4)C21)C3(C)C (centres unmarked) [Compound 2124]
- IC50: < 10 nM

SMILES: CC(=O)OC12COC1CC(O)C1(C)C(=O)C(OC(=O)c3ccco3)C3=C(C)C(OC(=O)C(O)C(NC(=O)OC(C)(C)C)c4ccncc4)CC(O)(C(OC(=O)c4ccccc4)C21)C3(C)C (centres unmarked) [Compound 2132]
- IC50: < 1 nM

SMILES: CC(=O)OC12COC1CC(O)C1(C)C(=O)C(OC(=O)c3ccco3)C3=C(C)C(OC(=O)C(O)C(NC(=O)OC(C)(C)C)c4ccco4)CC(O)(C(OC(=O)c4ccccc4)C21)C3(C)C (centres unmarked) [Compound 2142]
- IC50: < 1 nM

SMILES: CC(=O)OC12COC1CC(O)C1(C)C(=O)C(OC(=O)c3ccco3)C3=C(C)C(OC(=O)C(O)C(NC(=O)OC(C)(C)C)c4ccoc4)CC(O)(C(OC(=O)c4ccccc4)C21)C3(C)C (centres unmarked) [Compound 2159]
- IC50: < 1 nM

SMILES: CC(=O)OC12COC1CC(O)C1(C)C(=O)C(OC(=O)c3ccco3)C3=C(C)C(OC(=O)C(O)C(NC(=O)OC(C)(C)C)c4cccs4)CC(O)(C(OC(=O)c4ccccc4)C21)C3(C)C (centres unmarked) [Compound 2164]
- IC50: < 1 nM

SMILES: CC(=O)OC12COC1CC(O)C1(C)C(=O)C(OC(=O)c3ccco3)C3=C(C)C(OC(=O)C(O)C(NC(=O)OC(C)(C)C)c4ccsc4)CC(O)(C(OC(=O)c4ccccc4)C21)C3(C)C (centres unmarked) [Compound 2173]
- IC50: < 1 nM

SMILES: CC(=O)OC12COC1CC(O)C1(C)C(=O)C(OC(=O)c3ccco3)C3=C(C)C(OC(=O)C(O)C(NC(=O)OC(C)(C)C)C(C)C)CC(O)(C(OC(=O)c4ccccc4)C21)C3(C)C (centres unmarked) [Compound 2181]
- IC50: < 10 nM

SMILES: CC(=O)OC12COC1CC(O)C1(C)C(=O)C(OC(=O)c3ccco3)C3=C(C)C(OC(=O)C(O)C(NC(=O)OC(C)(C)C)C4CCC4)CC(O)(C(OC(=O)c4ccccc4)C21)C3(C)C (centres unmarked) [Compound 2199]
- IC50: < 10 nM

SMILES: CC(=O)OC12COC1CC(O)C1(C)C(=O)C(OC(=O)c3ccco3)C3=C(C)C(OC(=O)C(O)C(NC(=O)OC(C)(C)C)c4ccc([N+](=O)[O-])cc4)CC(O)(C(OC(=O)c4ccccc4)C21)C3(C)C (centres unmarked) [Compound 2202]
- IC50: < 1 nM

SMILES: CC(=O)OC12COC1CC(O)C1(C)C(=O)C(OC(=O)c3ccco3)C3=C(C)C(OC(=O)C(O)C(NC(=O)OC(C)(C)C)c4ccccc4)CC(O)(C(OC(=O)c4ccccc4)C21)C3(C)C (centres unmarked) [Compound 2212]
- IC50: < 10 nM

From US7524869B2, “Taxanes having a C10 ester substituent” (Florida State University Research Foundation, Inc., priority 2000, dated 2009)
